Molecules are shown by their SMILES.

One test deals with T1, human GPR40 (Homo sapiens, UniProt O14842).
T1 construct: expressed in transfected cells
The test is described as follows: GPR40 calcium flux assay, HEK293 cells stably expressing human GPR40. Type of test: cell-based. The following applies: transfected HEK293 cells stably expressing human GPR40, Fluo 8 dye, read-out: hGPR40 Ca2+ Assay EC50. The protocol:
(§1) Compounds were tested in a calcium flux assay using transfected HEK293 cells stably expressing either human GPR40 or rat GPR40. Human GPR40 expressing cells were cultured in DMEM-High Glucose media supplemented with 10% fetal bovine serum, 1×L-Glutamine, 1×Penicillin/Streptomycin and 500 μg/mL G418. Rat GPR40 expressing cells were cultured in DMEM-High Glucose media supplemented with 10% fetal bovine serum and 1 μg/mL puromycin. Cells were plated into poly-D-lysine coated 384-well plates and cultured overnight in a 37° C. humidified tissue culture incubator under 5% CO2/[…] atmosphere. On the day of the experiment, the culture media was replaced with assay buffer (HBSS, 20 mM HEPES, 0.1% BSA) and the cells incubated at 37° C. for 1 h. Calcium-sensitive fluorescent dye (Fluo 8 No-Wash Calcium Dye, ABD Bioquest) was then added and the cells incubated for another 30 min at 37° C. followed by 15 min at room temperature while protected from the light. The cell plate and a plate of diluted compounds of Formula (I) were loaded into a fluorescent plate reader that added compounds onto the cells while measuring the fluorescence intensity of each well. The plate reader recorded fluorescence intensity at 1 second intervals for 8 min and provided the data for analysis in an Excel format. EC50 values were calculated using Prism (GraphPad) software.
(Calcium flux is commonly read through the fluorescence of an indicator in the cells.)

In another test the target is T2, rat GPR40 (Rattus norvegicus, UniProt Q8K3T4).
T2 construct: expressed in transfected cells
The test is described as follows: GPR40 calcium flux assay, HEK293 cells stably expressing rat GPR40. As to conditions: transfected HEK293 cells stably expressing rat GPR40, Fluo 8 dye, read-out: rGPR40 Ca2+ Assay EC50. Type of test: cell-based. The protocol: as §1

T2 sequence (Q8K3T4 whole entry): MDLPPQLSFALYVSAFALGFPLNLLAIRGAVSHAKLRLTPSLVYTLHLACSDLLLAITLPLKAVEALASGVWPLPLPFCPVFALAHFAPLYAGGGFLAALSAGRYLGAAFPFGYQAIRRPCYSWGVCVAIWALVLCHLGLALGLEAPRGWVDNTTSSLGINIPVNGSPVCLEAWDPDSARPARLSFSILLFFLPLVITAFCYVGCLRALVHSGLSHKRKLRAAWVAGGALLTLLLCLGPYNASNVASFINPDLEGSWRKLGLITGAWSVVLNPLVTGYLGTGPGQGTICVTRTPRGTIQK
T1 sequence (O14842 whole entry): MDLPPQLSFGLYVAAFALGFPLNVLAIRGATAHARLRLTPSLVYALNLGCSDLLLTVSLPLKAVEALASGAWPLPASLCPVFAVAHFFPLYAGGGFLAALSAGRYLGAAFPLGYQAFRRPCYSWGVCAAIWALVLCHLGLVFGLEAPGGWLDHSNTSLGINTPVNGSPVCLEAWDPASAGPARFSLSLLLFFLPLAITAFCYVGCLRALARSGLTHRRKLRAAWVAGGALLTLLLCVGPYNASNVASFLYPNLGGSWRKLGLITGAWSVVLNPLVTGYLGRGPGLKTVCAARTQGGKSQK

What is called EC50 is the concentration at which the effect is half-maximal. For `COc1cc([C@H]2CC[C@H](COc3cccc([C@H](C4CC4)C(C)(F)C(=O)O)c3)CC2)c(F)cn1` (stereo partly drawn) [Cpd 61], the EC50 on human GPR40 is 0.25 nM; at rat GPR40, 0.53 nM.

In the case of `COc1ccc(F)c(C2=CCC(COc3cccc([C@H](C4CC4)[C@@](C)(F)C(=O)O)c3)CC2)c1` (stereo partly drawn) [Cpd 76, (2R,3S)-3-Cyclopropyl-2-fluoro-3-(3-((2′-fluoro-5′-methoxy-2,3,4,5-tetrahydro-[1,1′-biphenyl]-4-yl)methoxy)phenyl)-2-methylpropanoic acid], the concentration for a half-maximal effect (EC50) on human GPR40 was found to be 0.18 nM; at rat GPR40 it was 0.71 nM.

As to `COc1cc([C@H]2CC[C@H](COc3cncc(C(CC(=O)O)C4CC4)c3)CC2)c(F)cn1` (stereo partly drawn) [Cpd 22, 3-Cyclopropyl-3-(5-(((1r,4r)-4-(5-fluoro-2-methoxypyridin-4-yl)cyclohexyl)methoxy)pyridin-3-yl)propanoic acid], the EC50 at human GPR40 was 17.6 nM; on rat GPR40, 51.9 nM.

For `COc1ccc(F)c([C@]2(OC)CC[C@@H](COc3cccc([C@@H](CC(=O)O)C4CC4)c3)CC2)c1` [Cpd 11, (S)-3-Cyclopropyl-3-(3-(((1s,4R)-4-(2-fluoro-5-methoxyphenyl)-4-methoxycyclohexyl)methoxy)phenyl)propanoic acid], the results for the EC50 on human GPR40 and at rat GPR40 were 2.1 nM and 18.4 nM, respectively.

As to `COc1ccc(F)c(C2CCC(OCc3cccc([C@H](C4CC4)C(C)(F)C(=O)O)c3)CC2)c1` (stereo partly drawn) [Cpd 78, (3S)-3-Cyclopropyl-2-fluoro-3-(3-(((4-(2-fluoro-5-methoxyphenyl)cyclohexyl)oxy)methyl)phenyl)-2-methylpropanoic acid], the EC50 was determined as 2.2 nM on human GPR40 and 5.5 nM on rat GPR40.

For the compound `COc1ccc(F)c([C@H]2CC[C@H](COc3cncc(C(CC(=O)O)C4CC4)c3)CC2)c1` (stereo partly drawn) [Cpd 21, 3-Cyclopropyl-3-(5-(((1r,4r)-4-(2-fluoro-5-methoxyphenyl)cyclohexyl)methoxy)pyridin-3-yl)propanoic acid], the EC50 on human GPR40 was found to be 12 nM; at rat GPR40, 35.3 nM.

As to `COc1cc([C@H]2CC[C@H](COc3ccnc(C(CC(=O)O)C4CC4)c3)CC2)c(F)cn1` (stereo partly drawn) [Cpd 31, 3-Cyclopropyl-3-(4-(((1r,4r)-4-(5-fluoro-2-methoxypyridin-4-yl)cyclohexyl)methoxy)pyridin-2-yl)propanoic acid], the EC50 at human GPR40 is 26.1 nM; at rat GPR40, 54.2 nM.

As for `COc1ccc(F)c([C@H]2CC[C@@H](CNc3cccc([C@@H](CC(=O)O)C4CC4)c3)CC2)c1` [Cpd 47, (S)-3-cyclopropyl-3-(3-((((1s,4R)-4-(2-fluoro-5-methoxyphenyl)cyclohexyl)methyl)amino)phenyl)propanoic acid], the figures for the EC50 at human GPR40 and at rat GPR40 were 71.5 nM and 147 nM, respectively.

As to `CCOC(CC(=O)O)c1cccc(OC[C@H]2CC[C@@H](c3cc(OC)ccc3F)CC2)c1` (stereo partly drawn) [Cpd 50, 3-Ethoxy-3-(3-(((1s,4s)-4-(2-fluoro-5-methoxyphenyl)cyclohexyl)methoxy)phenyl) propanoic acid], the concentration for a half-maximal effect (EC50) on human GPR40 is 500 nM; at rat GPR40 it was 656 nM.

As for `COc1ccc(F)c([C@H]2CC[C@H](COc3ccnc(C(CC(=O)O)C4CC4)c3)CC2)c1` (stereo partly drawn) [Cpd 34, 3-Cyclopropyl-3-(4-(((1r,4r)-4-(2-fluoro-5-methoxyphenyl)cyclohexyl)methoxy)pyridin-2-yl)propanoic acid], the EC50 at human GPR40 was 62.4 nM; on rat GPR40 it was 282 nM.

Take `COc1ccc(F)c([C@H]2CC[C@H](CCc3cccc([C@@H](CC(=O)O)C4CC4)c3)CC2)c1` [Cpd 36, (S)-3-Cyclopropyl-3-(3-(2-((1r,4R)-4-(2-fluoro-5-methoxyphenyl)cyclohexyl)ethyl)phenyl) propanoic acid]: the results for the EC50 at human GPR40 and at rat GPR40 were 1.7 nM and 9.2 nM, respectively.

On to `COc1ccc(F)c([C@]2(F)CC[C@@H](COc3cccc([C@@H](CC(=O)O)C4CC4)c3)CC2)c1` [Cpd 20, (S)-3-Cyclopropyl-3-(3-(((1s,4R)-4-fluoro-4-(2-fluoro-5-methoxyphenyl)cyclohexyl)methoxy)phenyl)propanoic acid], for which the EC50 at human GPR40 is 9.9 nM; at rat GPR40, 40.7 nM.

With `COc1ccc(F)c(C2CCC(COc3cccc(C(CC(=O)O)C4CC4)c3)CC2)c1` (stereo not drawn) [Cpd 55, 3-Cyclopropyl-3-(3-(((1 s,4 s)-4-(2-fluoro-5-methoxyphenyl)cyclohexyl)methoxy)phenyl)propanoic acid], the results for the concentration for a half-maximal effect (EC50) on human GPR40 and on rat GPR40 were 133 nM and 346 nM, respectively.

As for `COc1cc([C@H]2CC[C@H](COc3cc([C@H](CC(=O)O)C4CC4)ccn3)CC2)c(F)cn1` [Cpd 24, (R)-3-Cyclopropyl-3-(2-(((1r,4R)-4-(5-fluoro-2-methoxypyridin-4-yl)cyclohexyl)methoxy)pyridin-4-yl)propanoic acid], the EC50 at human GPR40 came to 8.4 nM; on rat GPR40, 20.7 nM.

Regarding `COc1ccc(F)c([C@H]2CC[C@H](/C=C/c3cccc([C@H](C4CC4)C(C)(F)C(=O)O)c3)CC2)c1` (stereo partly drawn) [Cpd 72, (3S)-3-Cyclopropyl-2-fluoro-3-(3-((E)-2-((1r,4S)-4-(2-fluoro-5-methoxyphenyl)cyclohexyl)vinyl)phenyl)-2-methylpropanoic acid], the results for the EC50 on human GPR40 and on rat GPR40 were 1.88 nM and 2.48 nM, respectively.

As for `COc1ccc(C(=O)Nc2ccccn2)c(C2CCC(COc3cccc([C@H](C4CC4)C(C)(F)C(=O)O)c3)CC2)c1` (stereo partly drawn) [Cpd 71, (3S)-3-Cyclopropyl-2-fluoro-3-(3-((4-(5-methoxy-2-(pyridin-2-ylcarbamoyl)phenyl)cyclohexyl)methoxy)phenyl)-2-methylpropanoic acid], the 50% effective concentration (EC50) worked out at 1.9 nM on human GPR40 and 2.36 nM at rat GPR40.

With `CCc1ccc(F)c([C@H]2CC[C@H](COc3cccc([C@H](C4CC4)C(C)(F)C(=O)O)c3)CC2)c1` (stereo partly drawn) [Cpd 68, (3S)-3-Cyclopropyl-3-(3-(((1r,4S)-4-(5-ethyl-2-fluorophenyl)cyclohexyl)methoxy)phenyl)-2-fluoro-2-methylpropanoic acid], the EC50 at human GPR40 was found to be 0.27 nM; at rat GPR40, 2.22 nM.

As for `COc1ccc(F)c([C@H]2CC[C@H](CNc3cccc([C@H](C4CC4)C(C)(F)C(=O)O)c3)CC2)c1` (stereo partly drawn) [Cpd 77, (3S)-3-Cyclopropyl-2-fluoro-3-(3-((((1r,4S)-4-(2-fluoro-5-methoxyphenyl)cyclohexyl)methyl)amino)phenyl)-2-methylpropanoic acid], the EC50 at human GPR40 amounted to 1.72 nM; at rat GPR40 it was 10.4 nM.

For `COc1ccc(F)c([C@H]2CC[C@H](CNc3cccc([C@@H](CC(=O)O)C4CC4)c3)CC2)c1` [Cpd 40, (S)-3-Cyclopropyl-3-(3-((((1r,4 S)-4-(2-fluoro-5-methoxyphenyl)cyclohexyl)methyl)amino)phenyl)propanoic acid], the figures for the concentration giving a half-maximal response (EC50) on human GPR40 and on rat GPR40 were 22 nM and 21 nM, respectively.

Turning to `COc1ccc(F)c(C2CCC(COc3cccc([C@@H](CC(=O)O)C4CC4)c3)C(CC(C)C)C2)c1` (stereo partly drawn) [Cpd 29, (3S)-3-Cyclopropyl-3-(3-((4-(2-fluoro-5-methoxyphenyl)-2-isobutylcyclohexyl)methoxy)phenyl)propanoic acid], the EC50 was 17.9 nM at human GPR40 and 40.9 nM at rat GPR40.

On to `COc1cc([C@H]2CC[C@H](COc3cc([C@@H](Cc4nnn[nH]4)C4CC4)ccn3)CC2)c(F)cn1` [Cpd 43, 4-((1S,4r)-4-(((4-((S)-1-Cyclopropyl-2-(1H-tetrazol-5-yl)ethyl)pyridin-2-yl)oxy)methyl)cyclohexyl)-5-fluoro-2-methoxypyridine], for which the EC50 on human GPR40 worked out at 281 nM; on rat GPR40 it was 464 nM.
